Assay [1] has as its target T1, Somatostatin receptor type 2 (Homo sapiens, UniProt P30874). Put plainly: Displacement of [125I]-Tyr-SRIF from recombinant human SST2A receptor expressed in CHOK1 cell membranes after 90 mins by gamma counting method.
The target of assay [2] is T2, Somatostatin receptor type 4 (Homo sapiens, UniProt P31391). Put plainly: Displacement of [125I]-Tyr-SRIF from recombinant human SST4 receptor expressed in CHOK1 cell membranes after 90 mins by gamma counting method.
The target of assay [3] is Somatostatin receptor type 3 (Homo sapiens, UniProt P32745). The assay is described as follows: Displacement of [125I]-Tyr-SRIF from SST3 receptor (unknown origin) after 90 mins by gamma counting method. Background: Loss of bound radioactivity is the signal in a displacement assay; it reports binding, not function.
Somatostatin receptor type 3, sequence (P32745 whole entry): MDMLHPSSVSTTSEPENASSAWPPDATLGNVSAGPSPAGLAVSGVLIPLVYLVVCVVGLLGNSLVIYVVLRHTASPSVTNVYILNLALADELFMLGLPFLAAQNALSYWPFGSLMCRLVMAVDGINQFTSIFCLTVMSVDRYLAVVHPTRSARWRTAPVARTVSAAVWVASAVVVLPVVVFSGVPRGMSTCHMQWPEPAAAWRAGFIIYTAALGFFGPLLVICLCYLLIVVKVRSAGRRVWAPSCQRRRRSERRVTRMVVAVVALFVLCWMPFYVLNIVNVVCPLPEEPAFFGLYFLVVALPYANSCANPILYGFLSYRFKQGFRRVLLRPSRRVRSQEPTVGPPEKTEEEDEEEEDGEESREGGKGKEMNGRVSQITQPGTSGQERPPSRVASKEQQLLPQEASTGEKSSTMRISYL
For assay [4], the species on record is Homo sapiens. The assay is described as follows: Selectivity ratio of Ki for displacement of [125I]-Tyr-SRIF from SST1 receptor (unknown origin) to Ki for displacement of [125I]-Tyr-SRIF from recombinant human SST4 receptor expressed in CHOK1 cell membranes.
In assay [5] the target is T2, Somatostatin receptor type 4. Put plainly: Agonist activity at recombinant human SST4 receptor expressed in CHOK1 cell membranes assessed as inhibition of forskolin-stimulated cAMP accumulation measured after 2.5 to 20 hrs by TR-FRET assay. The class given is functional, cell-based. (cAMP levels reflect the balance of adenylyl cyclase and phosphodiesterase activity.)

The target in assay [6] is Somatostatin receptor type 1 (Homo sapiens, UniProt P30872). Put plainly: Displacement of [125I]-Tyr-SRIF from SST1 receptor (unknown origin) after 90 mins by gamma counting method.
Somatostatin receptor type 1, sequence (P30872 whole entry): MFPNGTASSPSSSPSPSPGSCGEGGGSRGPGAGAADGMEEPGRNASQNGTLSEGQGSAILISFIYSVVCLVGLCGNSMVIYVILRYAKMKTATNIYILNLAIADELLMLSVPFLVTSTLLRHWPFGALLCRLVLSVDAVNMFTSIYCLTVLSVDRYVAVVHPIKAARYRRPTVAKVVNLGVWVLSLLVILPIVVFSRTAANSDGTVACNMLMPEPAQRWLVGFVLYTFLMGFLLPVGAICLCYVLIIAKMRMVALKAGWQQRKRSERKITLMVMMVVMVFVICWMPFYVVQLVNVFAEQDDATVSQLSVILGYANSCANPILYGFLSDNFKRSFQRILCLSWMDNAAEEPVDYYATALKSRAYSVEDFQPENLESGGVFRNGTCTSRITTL
Assay [7] is filed under the species Homo sapiens. The assay is described as follows: Selectivity ratio of Ki for displacement of [125I]-Tyr-SRIF from SST5 receptor (unknown origin) to Ki for displacement of [125I]-Tyr-SRIF from recombinant human SST4 receptor expressed in CHOK1 cell membranes.
For assay [8], the target named is Somatostatin receptor type 5 (Homo sapiens, UniProt P35346). Put plainly: Displacement of [125I]-Tyr-SRIF from SST5 receptor (unknown origin) after 90 mins by gamma counting method.
Somatostatin receptor type 5, sequence (P35346 whole entry): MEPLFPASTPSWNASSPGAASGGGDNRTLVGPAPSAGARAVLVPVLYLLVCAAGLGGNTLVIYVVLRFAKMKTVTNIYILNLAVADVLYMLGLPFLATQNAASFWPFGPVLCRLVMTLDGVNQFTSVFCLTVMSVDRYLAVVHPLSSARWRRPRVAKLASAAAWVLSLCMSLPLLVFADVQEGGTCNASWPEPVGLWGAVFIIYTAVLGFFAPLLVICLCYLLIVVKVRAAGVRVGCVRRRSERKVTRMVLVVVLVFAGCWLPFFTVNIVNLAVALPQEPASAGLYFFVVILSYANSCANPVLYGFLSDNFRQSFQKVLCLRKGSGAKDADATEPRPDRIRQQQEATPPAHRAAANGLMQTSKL
The species named for assay [9] is Homo sapiens. Put plainly: Selectivity ratio of Ki for displacement of [125I]-Tyr-SRIF from recombinant human SST2A receptor expressed in CHOK1 cell membranes to Ki for displacement of [125I]-Tyr-SRIF from recombinant human SST4 receptor expressed in CHOK1 cell membranes.
The species named for assay [10] is Homo sapiens. The assay is described as follows: Selectivity ratio of Ki for displacement of [125I]-Tyr-SRIF from SST3 receptor (unknown origin) to Ki for displacement of [125I]-Tyr-SRIF from recombinant human SST4 receptor expressed in CHOK1 cell membranes.
Assay [11] addresses T1, Somatostatin receptor type 2. Put plainly: Displacement of [125I]-LTT-SRIF-28 from recombinant human SST2 receptor expressed in CHO cell membranes after 60 mins by scintillation counting method.
Assay [12] shares this target. Put plainly: Displacement of 3-[125I]iodotyrosyl25-somatostatin-28 from recombinant human SST2 receptor expressed in CHOK1 cell membranes after 45 mins by scintillation counting method.
Assay [13] addresses T2, Somatostatin receptor type 4. Put plainly: Displacement of 3-[125I]iodotyrosyl25-somatostatin-28 from recombinant human SST4 receptor expressed in CHOK1 cell membranes after 45 mins by scintillation counting method.

Drawing on ChEMBL document CHEMBL4368866, “Discovery of a 3,4,5-trisubstituted-1,2,4-triazole agonist with high affinity and selectivity at the somatostatin subtype-4 (sst4) receptor” (Medchemcomm, 2018), this text covers Ki, Ratio Ki and EC50 for 20 compounds.

Structures are written as SMILES.

The term Ki denotes a dissociation constant, usually derived from enzyme kinetics or from competition with a known ligand. For orientation: EC50 means the concentration at which the effect is half-maximal.

T1 sequence (P30874 whole entry): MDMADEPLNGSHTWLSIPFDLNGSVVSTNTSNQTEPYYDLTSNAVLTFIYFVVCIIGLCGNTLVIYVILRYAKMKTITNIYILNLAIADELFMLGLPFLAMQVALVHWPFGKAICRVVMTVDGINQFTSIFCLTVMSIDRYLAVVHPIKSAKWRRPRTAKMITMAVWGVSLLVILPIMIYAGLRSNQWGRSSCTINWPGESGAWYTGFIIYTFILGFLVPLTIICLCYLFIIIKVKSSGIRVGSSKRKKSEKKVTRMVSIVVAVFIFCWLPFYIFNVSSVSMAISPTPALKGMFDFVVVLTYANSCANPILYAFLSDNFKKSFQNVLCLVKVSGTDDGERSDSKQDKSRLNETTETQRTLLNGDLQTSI
T2 sequence (P31391 whole entry): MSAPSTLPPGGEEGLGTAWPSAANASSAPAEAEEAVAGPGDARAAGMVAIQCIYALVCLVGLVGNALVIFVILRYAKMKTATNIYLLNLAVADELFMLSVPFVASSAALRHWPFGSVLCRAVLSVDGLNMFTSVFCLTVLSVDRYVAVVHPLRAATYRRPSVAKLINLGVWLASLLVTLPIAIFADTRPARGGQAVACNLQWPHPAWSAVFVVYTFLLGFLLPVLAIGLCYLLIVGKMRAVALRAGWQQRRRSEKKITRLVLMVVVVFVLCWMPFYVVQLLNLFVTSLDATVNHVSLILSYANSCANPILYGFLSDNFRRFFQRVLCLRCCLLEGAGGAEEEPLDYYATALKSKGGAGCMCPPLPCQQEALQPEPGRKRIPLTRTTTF

Consider `Clc1ccc(Cc2nnc(CCc3c[nH]cn3)n2CCc2c[nH]c3ccccc23)cc1Cl`, for which the Ki in assay [1] was greater than 10 µM; in [2], 4.8 µM.
For `Clc1ccc(Cc2nnc(CCc3c[nH]c4ccccc34)n2CCCc2c[nH]cn2)cc1Cl`, the Ki in [3] is 6.63 µM; in assay [1], greater than 10 µM; in [6], 4.75 µM; in assay [8], greater than 10 µM; in assay [2], 0.019 µM. Further, the Ratio Ki in the assay listed under Homo sapiens [4] was 250; in the assay listed under Homo sapiens [7], greater than 500; in the assay listed under Homo sapiens [9], greater than 500; in the assay listed under Homo sapiens [10] it was 350. Further, the EC50 in assay [5] is 0.0068 µM.
As for `c1ccc(Cn2c(CCc3c[nH]cn3)nnc2CCc2c[nH]c3ccccc23)cc1`, the Ki in [2] turned out to be 4.47 µM.
`NCCCn1c(CCc2c[nH]c3ccccc23)nnc1Cc1ccc(Cl)c(Cl)c1`: the results for the inhibition constant Ki in [1] and in [2] were greater than 10 µM and 2.38 µM, respectively.
Taken in the same sequence, the figures for `Clc1ccc(Cn2c(CCc3c[nH]cn3)nnc2Cc2c[nH]c3ccccc23)cc1Cl` were greater than 10 µM and greater than 10 µM.
Taken in the same sequence, the figures for `NCCCc1nnc(CCc2c[nH]c3ccccc23)n1Cc1ccc(Cl)c(Cl)c1` were greater than 10 µM and greater than 10 µM.
Consider `Clc1ccc(Cn2c(CCc3c[nH]cn3)nnc2CCc2c[nH]c3ccccc23)cc1Cl`, for which the Ki in assay [1] was greater than 10 µM; in assay [2] it was 1.43 µM.
As for `NCCCc1nnc(Cc2ccc(Cl)c(Cl)c2)n1CCc1c[nH]c2ccccc12`, the Ki in assay [2] is greater than 10 µM.
Turning to `NCCCc1nnc(CCc2c[nH]c3ccccc23)n1Cc1ccccc1`, the inhibition constant (Ki) in [1] is greater than 10 µM; in assay [2], less than 10 µM.
On to `Clc1ccc(Cn2c(CCc3c[nH]c4ccccc34)nnc2C2CCNCC2)cc1Cl`, for which the Ki in [1] and in [2] was greater than 10 µM throughout.
Take `Cc1ccc(S(=O)(=O)N[C@@H](CCN)C(=O)N[C@@H](Cc2ccccc2)C(N)=O)c2ccccc12`: the Ki in [11] was greater than 5 µM.
In the case of `Clc1ccc(Cn2c(Cc3c[nH]c4ccccc34)nnc2C2CCNCC2)cc1Cl`, the Ki in assay [2] is greater than 10 µM.
Regarding `NCCCc1nnc(Cc2c[nH]c3ccccc23)n1Cc1ccc(Cl)c(Cl)c1`, the Ki in assay [1] and in [2] was greater than 10 µM in each case.
In the case of `NCCCc1nnc(Cc2c[nH]c3ccccc23)n1Cc1ccccc1`, in assay [2], the Ki was greater than 10 µM.
In the case of `c1ccc(Cn2c(CCc3c[nH]c4ccccc34)nnc2C2CCNCC2)cc1`, the Ki in assay [1] and in assay [2] was greater than 10 µM each time.
As for `c1ccc(Cn2c(Cc3c[nH]c4ccccc34)nnc2C2CCNCC2)cc1`, the Ki in [1] and in assay [2] was greater than 10 µM each time.
`Clc1ccc(Cc2nnc(C3CCNCC3)n2CCc2c[nH]c3ccccc23)cc1Cl`: the Ki in assay [2] was greater than 10 µM.
Consider `c1ccc(Cn2c(CCc3c[nH]cn3)nnc2Cc2c[nH]c3ccccc23)cc1`, for which the Ki in assay [2] is greater than 10 µM.
For the compound `COC(=O)[C@H](CCCN=C(N)N)NC(=O)CCCc1c(-c2ccccc2)[nH]c2c(F)cc(F)cc12`, the Ki amounted to 4.72 µM in assay [12] and 0.0007 µM in [13].
Regarding `c1ccc(CCn2c(CCc3c[nH]cn3)nnc2CCc2c[nH]c3ccccc23)cc1`, the results for the Ki in [1] and in assay [2] were greater than 10 µM and 2.03 µM, respectively.
